Data published in ChEMBL document CHEMBL2163335, “Structure-functional selectivity relationship studies of β-arrestin-biased dopamine D₂ receptor agonists” (J Med Chem, 2012).
Calls of active or inactive are those of the source. The rule behind the calls is not given here.

Assays:
D(2) dopamine receptor [1] = target: T1, D(2) dopamine receptor (Homo sapiens, UniProt P14416); experiment: Agonist activity at D2L receptor in human HTLA cells assessed as beta arrestin recruitment at 6 uM after 18 hrs by luminescence assay; type: functional, cell-based
T1 sequence (P14416 whole entry): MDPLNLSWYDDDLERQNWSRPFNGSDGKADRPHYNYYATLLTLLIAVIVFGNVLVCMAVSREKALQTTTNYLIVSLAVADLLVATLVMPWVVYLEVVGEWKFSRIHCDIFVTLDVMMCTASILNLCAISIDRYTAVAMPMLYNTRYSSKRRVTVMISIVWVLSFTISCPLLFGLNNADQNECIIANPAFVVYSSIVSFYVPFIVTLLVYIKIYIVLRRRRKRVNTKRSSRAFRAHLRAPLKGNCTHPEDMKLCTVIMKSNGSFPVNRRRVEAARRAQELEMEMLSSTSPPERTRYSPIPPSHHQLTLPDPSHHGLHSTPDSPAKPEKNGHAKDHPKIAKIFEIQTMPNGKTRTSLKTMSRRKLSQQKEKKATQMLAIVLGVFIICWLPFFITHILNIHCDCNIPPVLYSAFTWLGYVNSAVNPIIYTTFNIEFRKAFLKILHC

D(2) dopamine receptor [2] = target: T1, D(2) dopamine receptor; experiment: Agonist activity at human D2L receptor expressed in HEK293T cells coexpressing Gi subunit assessed as inhibition of isoproterenol-stimulated cAMP production by luminescence assay; type: functional, cell-based, HEK-293T
D(2) dopamine receptor [3] = target: T1, D(2) dopamine receptor; experiment: Partial agonist activity at D2L receptor in human HTLA cells assessed as beta arrestin recruitment at 6 uM after 18 hrs by luminescence assay; type: functional, cell-based
D(2) dopamine receptor [4] = target: T1, D(2) dopamine receptor; experiment: Displacement of [3H]N-methylspiperone from human D2L receptor expressed in CHO cells after 1.5 hrs by microbeta counting method; type: cell-based
D(2) dopamine receptor [5] = target: T1, D(2) dopamine receptor; details: HTLA, 6 uM
Description: Partial agonist activity at D2L receptor in human HTLA cells assessed as beta arrestin recruitment at 6 uM after 18 hrs by luminescence assay relative to Quinpirole

Mus musculus [6] = experiment: Antipsychotic-like activity in beta- arrestin-2 knockout mouse assessed as inhibition of PCP-induced hyperlocomotion at 2 mg/kg, ip administered 30 min prior to PCP challenge measured after 90 min; type: functional, organism-based; set-up: dose 2 mg/kg
Mus musculus [7] = experiment: Antipsychotic-like activity in wild type mouse assessed as inhibition of PCP-induced hyperlocomotion at 2 mg/kg, ip administered 30 min prior to PCP challenge measured after 90 min; type: functional, organism-based; set-up: dose 2 mg/kg
[8] = target: D(1B) dopamine receptor (Homo sapiens) (UniProt P21918); experiment: Binding affinity to D5 receptor
Sequence of D(1B) dopamine receptor (Homo sapiens) (P21918 whole entry): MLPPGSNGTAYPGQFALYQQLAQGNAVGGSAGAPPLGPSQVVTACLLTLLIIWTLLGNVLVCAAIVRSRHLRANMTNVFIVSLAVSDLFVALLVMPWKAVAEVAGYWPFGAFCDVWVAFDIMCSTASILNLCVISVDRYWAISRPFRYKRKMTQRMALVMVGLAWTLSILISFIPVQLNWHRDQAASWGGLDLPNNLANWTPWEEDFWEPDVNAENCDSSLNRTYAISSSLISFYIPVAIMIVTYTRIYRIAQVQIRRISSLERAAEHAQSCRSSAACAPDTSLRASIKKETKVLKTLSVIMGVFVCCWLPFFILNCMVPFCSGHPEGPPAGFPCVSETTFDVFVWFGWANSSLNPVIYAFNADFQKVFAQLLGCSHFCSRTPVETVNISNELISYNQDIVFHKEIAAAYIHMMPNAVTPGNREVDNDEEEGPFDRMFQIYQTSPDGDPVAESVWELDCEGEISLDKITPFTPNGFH

[9] = target: D(1A) dopamine receptor (Homo sapiens) (UniProt P21728); experiment: Binding affinity to D1 receptor
Sequence of D(1A) dopamine receptor (Homo sapiens) (P21728 whole entry): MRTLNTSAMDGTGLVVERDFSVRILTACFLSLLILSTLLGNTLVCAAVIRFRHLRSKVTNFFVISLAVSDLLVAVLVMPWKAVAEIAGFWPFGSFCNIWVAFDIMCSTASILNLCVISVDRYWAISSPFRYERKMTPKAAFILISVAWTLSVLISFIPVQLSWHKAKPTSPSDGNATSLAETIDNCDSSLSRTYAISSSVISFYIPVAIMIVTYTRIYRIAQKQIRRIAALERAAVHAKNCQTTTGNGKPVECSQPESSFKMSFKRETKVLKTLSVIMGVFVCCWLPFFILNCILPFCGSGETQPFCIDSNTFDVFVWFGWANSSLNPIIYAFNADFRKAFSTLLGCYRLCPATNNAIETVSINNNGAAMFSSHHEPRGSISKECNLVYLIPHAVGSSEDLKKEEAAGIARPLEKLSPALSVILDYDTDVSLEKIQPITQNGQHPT

D(2) dopamine receptor [10] = target: T1, D(2) dopamine receptor; details: HTLA, at 6 µM
Description: Agonist activity at D2L receptor in human HTLA cells assessed as beta arrestin recruitment at 6 uM after 18 hrs by luminescence assay relative to Quinpirole

[11] = target: D(3) dopamine receptor (Homo sapiens) (UniProt P35462); experiment: Binding affinity to D3 receptor
Sequence of D(3) dopamine receptor (Homo sapiens) (P35462 whole entry): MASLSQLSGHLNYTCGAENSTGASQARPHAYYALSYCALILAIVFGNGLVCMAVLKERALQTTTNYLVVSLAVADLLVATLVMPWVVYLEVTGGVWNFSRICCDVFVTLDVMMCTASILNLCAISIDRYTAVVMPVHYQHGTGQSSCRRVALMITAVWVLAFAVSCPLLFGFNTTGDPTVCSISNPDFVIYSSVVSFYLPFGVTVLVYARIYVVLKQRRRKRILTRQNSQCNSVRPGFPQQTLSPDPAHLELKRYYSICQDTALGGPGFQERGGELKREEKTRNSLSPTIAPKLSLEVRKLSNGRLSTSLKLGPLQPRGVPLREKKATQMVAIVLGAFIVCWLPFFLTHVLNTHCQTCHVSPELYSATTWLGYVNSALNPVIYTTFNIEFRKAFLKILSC

[12] = target: T2, D(4) dopamine receptor (Homo sapiens) (UniProt P21917); experiment: Binding affinity to D4 receptor
T2 sequence (whole entry): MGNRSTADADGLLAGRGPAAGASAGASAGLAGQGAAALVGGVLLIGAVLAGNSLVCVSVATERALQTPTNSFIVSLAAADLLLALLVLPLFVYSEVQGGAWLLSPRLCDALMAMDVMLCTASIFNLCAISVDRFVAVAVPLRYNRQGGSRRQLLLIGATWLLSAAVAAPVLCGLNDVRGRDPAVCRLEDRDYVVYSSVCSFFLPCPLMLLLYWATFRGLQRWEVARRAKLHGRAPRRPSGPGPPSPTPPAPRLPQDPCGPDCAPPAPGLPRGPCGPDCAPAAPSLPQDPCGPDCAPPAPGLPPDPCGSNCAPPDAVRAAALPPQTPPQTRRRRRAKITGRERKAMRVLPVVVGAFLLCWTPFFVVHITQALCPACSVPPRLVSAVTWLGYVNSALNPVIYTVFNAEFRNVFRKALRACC

With `Clc1cccc(N2CCN(CCCOc3ccc4cn[nH]c4c3)CC2)c1Cl` the EC50 (D(2) dopamine receptor [1]) was 200 nM and the EC50 (D(2) dopamine receptor [2]; hek-293t) was “Not Active”.
For `O=C1CCc2ccc(OC[C@H]3CC[C@H](CN4CCN(c5cccc(Cl)c5Cl)CC4)CC3)cc2N1`, the EC50 (D(2) dopamine receptor [3]) was 1580 nM, the EC50 (D(2) dopamine receptor [2]; hek-293t) was “Not Active” and the Ki (D(2) dopamine receptor [4]) was 145 nM. The Emax (D(2) dopamine receptor [5]) was 45%.
With `Clc1cccc(N2CCN(CCCCOc3ccc4cn[nH]c4c3)CC2)c1Cl` the EC50 (D(2) dopamine receptor [3]) was 100 nM and the EC50 (D(2) dopamine receptor [2]; hek-293t) was “Not Active”.
For `O=c1[nH]c2ccc(OCCCCN3CCN(c4cccc(Cl)c4Cl)CC3)cc2[nH]1`, the EC50 (D(2) dopamine receptor [2]; hek-293t) was “Not Active”.
In the case of `Clc1cccc(C2CCN(CCCOc3ccc4scnc4c3)CC2)c1Cl`, the EC50 (D(2) dopamine receptor [1]) is reported as 50 nM and the EC50 (D(2) dopamine receptor [2]; hek-293t) is reported as “Not Active”.
With `O=C1CCc2ccc(OCCCCN3CCCN(c4cccc(Cl)c4Cl)CC3)cc2N1` the inhibition (Mus musculus [6]) was “inactive”, the inhibition (Mus musculus [7]) was “Active” and the Activity [8] was “inactive”. The Activity [9] was “inactive”.
`CC(C)Oc1ccccc1N1CCN(CCCCOc2ccc3c(c2)NC(=O)CC3)CC1` was tested, and the EC50 (D(2) dopamine receptor [1]) was 2 nM, the EC50 (D(2) dopamine receptor [2]; read-out: EC50) was 25 nM and the Ki (D(2) dopamine receptor [4]) was 3.1 nM. The Emax (D(2) dopamine receptor [10]) was 63%.
`O=C1NCCc2ccc(OCCCN3CCCN(c4cccc(Cl)c4Cl)CC3)cc21` was tested, and the EC50 (D(2) dopamine receptor [1]) was 6.3 nM and the EC50 (D(2) dopamine receptor [2]; hek-293t) was “Not Active”.
`O=C1CCc2ccc(OCCCCN3CCN(c4cccc(Cl)c4Cl)CC3)nc2N1` was tested, and the EC50 (D(2) dopamine receptor [2]; hek-293t) was “Not Active”.
In the case of `Clc1cccc(N2CCN(CCCCOc3ccc4scnc4c3)CC2)c1Cl`, the EC50 (D(2) dopamine receptor [3]) is reported as 63 nM and the EC50 (D(2) dopamine receptor [2]; hek-293t) is reported as “Not Active”.
For `O=C1CCc2ccc(OCCCCN3CCCN(c4cccc(Cl)c4Cl)CC3)nc2N1`, the EC50 (D(2) dopamine receptor [1]) was 1.6 nM and the EC50 (D(2) dopamine receptor [2]; hek-293t) was “Not Active”.
In the case of `O=C1CCc2ccc(Oc3ccc(CN4CCN(c5cccc(Cl)c5Cl)CC4)cc3)cc2N1`, the EC50 (D(2) dopamine receptor [3]) is reported as 501 nM and the EC50 (D(2) dopamine receptor [2]; hek-293t) is reported as “Not Active”.
`O=C1NCCc2ccc(OCCCN3CCN(c4cccc(Cl)c4Cl)CC3)cc21` was tested, and the EC50 (D(2) dopamine receptor [1]) was 20 nM and the EC50 (D(2) dopamine receptor [2]; hek-293t) was “Not Active”.
For `Clc1cccc(N2CCN(CCCOc3ccc4scnc4c3)CC2)c1Cl`, the EC50 (D(2) dopamine receptor [1]) was 126 nM and the EC50 (D(2) dopamine receptor [2]; hek-293t) was “Not Active”.
`Clc1cccc(N2CCCN(CCCOc3ccc4scnc4c3)CC2)c1Cl` gave an Emax (D(2) dopamine receptor [10]) of 71%.
With `O=C1CCc2ccc(Oc3cccc(CN4CCN(c5cccc(Cl)c5Cl)CC4)c3)cc2N1` the EC50 (D(2) dopamine receptor [3]) was 316 nM and the EC50 (D(2) dopamine receptor [2]; hek-293t) was “Not Active”.
For `Clc1cccc(C2CCN(CCCCOc3ccc4scnc4c3)CC2)c1Cl`, the inhibition (Mus musculus [6]) was “inactive”, the inhibition (Mus musculus [7]) was “Active” and the Activity [8] was “inactive”. The Activity [11] was “Active”, the Activity [12] was “Active” and the Activity [9] was “inactive”. The EC50 (D(2) dopamine receptor [1]) was 79 nM, the EC50 (D(2) dopamine receptor [2]; hek-293t) was “Not Active” and the Emax (D(2) dopamine receptor [10]) was 78%.
`CCOc1cccc(N2CCN(CCCCOc3ccc4c(c3)NC(=O)CC4)CC2)c1` was tested, and the EC50 (D(2) dopamine receptor [1]) was 10 nM, the EC50 (D(2) dopamine receptor [2]; read-out: EC50) was 158 nM and the Ki (D(2) dopamine receptor [4]) was 21 nM. The Emax (D(2) dopamine receptor [10]) was 40%.
For `O=C1NCCc2ccc(OCCCCN3CCN(c4cccc(Cl)c4Cl)CC3)cc21`, the EC50 (D(2) dopamine receptor [3]) was 4 nM and the EC50 (D(2) dopamine receptor [2]; hek-293t) was “Not Active”.
`Clc1cccc(N2CCCN(CCCCOc3ccc4scnc4c3)CC2)c1Cl` was tested, and the EC50 (D(2) dopamine receptor [2]; hek-293t) was “Not Active”.
`CCOc1ccc(N2CCN(CCCCOc3ccc4c(c3)NC(=O)CC4)CC2)cc1` was tested, and the EC50 (D(2) dopamine receptor [1]) was 50 nM, the EC50 (D(2) dopamine receptor [2]; read-out: EC50) was 251 nM and the Ki (D(2) dopamine receptor [4]) was 53 nM. It also gave an Emax (D(2) dopamine receptor [10]) of 82%.
`O=c1[nH]c2ccc(OCCCCN3CCC(c4cccc(Cl)c4Cl)CC3)cc2[nH]1` was tested, and the EC50 (D(2) dopamine receptor [2]; hek-293t) was “Not Active”.
